Legend:
[1] = test system: YB5 cells; experiment: GFP reactivation in YB5 cells (flow cytometry); format: cell-based, human; conditions: for GFP reactivation activity: multiple doses, four-day drug treatment in YB5
[2] = test system: YB5 cells; experiment: RNA-seq in YB5 cells; format: cell-based, human; conditions: after excluding early response genes
Experimental: RNA from experiments in biological triplicates was isolated using RNeasy Mini Plus Kit (QIAGEN) following the manufacturer's instructions. Strand-specific RNA libraries were generated from 1 μg of RNA using TruSeq stranded total RNA with Ribo-Zero Gold (Illumina). Sequencing was performed using single end reads (50 bp, average 50 million reads per sample) on the HiSeq2500 platform (Illumina) at Fox Chase Cancer Center Genomic Facility. Sequenced reads were aligned to the hg19 genome assembly using TopHat2 (Kim, D., Pertea, G., Trapnell, C., Pimentel, H., Kelley, R., and Salzberg, S. L. (2013). Genome Biol 14, R36). The expression level and fold change of each treatment group was evaluated using EdgeR (Robinson, M. D., McCarthy, D. J., and Smyth, G. K. (2010), Bioinformatics 26, 139-140). Genes that had 0 reads across all samples were excluded. In order to get rid of batch effects, samples were normalized using RUVr method from the RUVseq package (Risso, D., Ngai, J., Speed, T. P., and Dudoit, S. (2014). Normalization of RNA-seq data using factor analysis of control genes or samples. Nat Biotechnol 32, 896-902). RNA data were deposited in the GEO database with the accession number GSE104837.

[3] = test system: YB5 cells; experiment: GFP reactivation in YB5 cells (flow cytometry); format: cell-based, human; conditions: for Emax at 1 µM / Emax at 5 µM / Emax at 10 µM / Emax at 25 µM: Homo sapiens, 24 h; for Emax at 1 µM: read-out: relative activity to Depsipeptide @ 1 μM %; for Emax at 5 µM: read-out: relative activity to Depsipeptide @ 5 μM %; for Emax at 10 µM: read-out: relative activity to Depsipeptide @ 10 μM %; for Emax at 25 µM: read-out: relative activity to Depsipeptide @ 25 μM %
From the text: To screen the compounds of the invention for epigenetic anti-cancer activity the YB5 cell-based system, which is derived from the human colon cancer cell line SW48, was used (Si et al., 2010, Cancer Res. 70:6968-6977; Raynal et al., 2012, Cancer Res. 72:1170-1181). YB5 cells contain a single insertion of cytomegalovirus (CMV) promoter driving green fluorescent protein (GFP) gene. GFP expression is silenced in >99.9% of YB5 cells by epigenetic mechanisms. In YB5 cells, the inserted GFP gene behaves similarly to endogenous tumor suppressor genes (TSGs) silenced by epigenetic mechanisms, and it can be reactivated by epigenetic anti-cancer agents such as DNA methylation inhibitors and/or HDAC inhibitors such as depsipeptide (Si et al., 2010, Cancer Res. 70:6968-6977; Raynal et al., 2012, Cancer Research, 72:1170-1181; Wu et al., 2008, Mol. Cell Biol, 28:3219-3235). Thus, reactivation of GFP expression and the resulting fluorescence is a measure of epigenetic anti-cancer activity.
The following procedure may be used to identify compounds of useful in the invention. YB5 cells cultured in L-15 medium supplemented with 10% fetal bovine serum and 1% P/S are treated for 24 hours with varying concentrations (50 nM, 100 nM, 500 nM, 1 μM, 5 μM, 10 μM, 25 μM, and 50 μM) of test compounds. After treatment, cells are trypsinized and re-suspended in cell culture media with propidium iodide (PI) to stain dead cells. Reactivation of GFP is measured using flow cytometry to identify the GFP positive population. The relative activities are expressed as the percent of the response compared to treatment with 20 nM HDACi depsipeptide for 24 hours. YB5 cells are grown in 1% CO2 atmosphere at 37° C.
NDL-3040 compound library consists of 3040 chemically diverse compounds that are semi-natural, derived from natural compounds, or synthetic compounds that are natural-compound-like. The small molecules were arrayed in 96-well plates as 10 mM stocks in 100% DMSO and were purchased from TimTec Inc. An aminothiazole analog library (93 small molecules) was also purchased from the same vendor and was in a 96-well plate format as 10 mM stocks in 100% DMSO. The 3040 compounds were screened at 25 μM for 24 hr. All plates were kept at −80° C. before use. YB5 cells growing in log phase (70-80% confluency) in 96-well plates were used. Each experimental 96-well plate contained 80 different compounds. Compounds were dispensed using an INTEGRA VIAFLO96 96-well pipette. After a 24 hr drug treatment, cells were trypsinized for 10 mins and re-suspended in L-15 medium containing propidium iodide (PI) to stain for dead cells. A total of 10000 cells per well were analyzed using Millipore Guava flow cytometer (EMD, Millipore). GFP positive percentage was calculated by excluding all the PI positive cells. After finishing the screening, the average Z-factor
For drug screening and dose response validations, GFP positive cells were detected by Millipore Guava flow cytometer (EMD, Millipore). Cell cycle analysis was performed using BD FACSCalibur™ by propidium iodide staining four days after drug treatment. Sub-G1 population percentage was also included to measure apoptotic cell proportion. Data were analyzed using FlowJo software version 10.2. For the cell differentiation analysis, cells were washed and stained with propidium iodide (PI), CD11 b (BD Biosciences, #562793) and the isotype control IgG (BD Biosciences, #555748). Flow cytometry analysis was performed on a Millipore Guava flow cytometer (EMD, Millipore). For the ID8 in vivo experiments, ascites was drained from 5-10 mice per group and incubated in ACK buffer (Thermo Fisher) to lyse red blood cells for 10 minutes, then washed. Ascites from each mouse was individually lysed and prepared for flow cytometry. Mononuclear cells collected were cultured for 4 hours in RPMI with 5% Fetal Bovine Serum and in the presence of Cell Stimulation Cocktail (plus protein transport inhibitors; eBioscience). […]

[4] = test system: YB5 cells; experiment: qPCR gene expression in YB5 cells; format: cell-based, human; conditions: 24 hr treatment
Experimental: Total RNA was extracted using TRIzol reagent (Invitrogen) following the manufacturer's protocol and RNA concentrations were measured using Nanodrop. cDNAs were synthesized using High Capacity cDNA Reverse Transcription Kit (ThermoFisher) and qPCR was performed using either ready-made TaqMan® assays or SYBR-green using custom-designed primers. All the data were analyzed using Applied Biosystems software (StepOne™ Software V2.3). For all experiments, relative expression levels of the target genes were determined by calculating the 2^−ΔΔCt values. All experiments were performed at least in triplicates. Either GAPDH or 18S rRNA was used as an internal normalization control for protein coding genes. RPLPO was used as an internal normalization control for ERVs. All SYBR-green primers were described previously and are listed in Table 1 along with TaqMan® probes used.

[5] = test system: ID8; experiment: ID8 ovarian cancer syngeneic immunocompetent mouse model; format: in vivo
Experimental: For drug screening and dose response validations, GFP positive cells were detected by Millipore Guava flow cytometer (EMD, Millipore). Cell cycle analysis was performed using BD FACSCalibur™ by propidium iodide staining four days after drug treatment. Sub-G1 population percentage was also included to measure apoptotic cell proportion. Data were analyzed using FlowJo software version 10.2. For the cell differentiation analysis, cells were washed and stained with propidium iodide (PI), CD11 b (BD Biosciences, #562793) and the isotype control IgG (BD Biosciences, #555748). Flow cytometry analysis was performed on a Millipore Guava flow cytometer (EMD, Millipore). For the ID8 in vivo experiments, ascites was drained from 5-10 mice per group and incubated in ACK buffer (Thermo Fisher) to lyse red blood cells for 10 minutes, then washed. Ascites from each mouse was individually lysed and prepared for flow cytometry. Mononuclear cells collected were cultured for 4 hours in RPMI with 5% Fetal Bovine Serum and in the presence of Cell Stimulation Cocktail (plus protein transport inhibitors; eBioscience). Cells were then washed and stained for cell surface markers including Live/Dead (eBioscience #65-0865-18), CD45 (BD Biosciences, #563891), CD3 (BD Biosciences, #560527), MHC II (Biolegend #107619, Isotype Control #400627), CD80 (BD Biosciences, #553769), CD86 (BD Biosciences, #558703) and CD11c (BD Biosciences, #564079). Flow cytometry acquisition was performed on an LSRII cytometer (BD Biosciences) and data were analyzed using FlowJo software version 10.2.
2.5×10^5 ID8-VEGF-Defensin cells were injected i.p. into 7-8-week-old female C57BL/6NHsd (C57Bl/6) mice. Three days after injection, 1 mg/kg SNS-032, 10 mg/kg SNS-032, or 5% DMSO in PBS (vehicle control) was administered i.p. every 3 days for the duration of the experiment. α-PD-1 (200 ug/mouse) or IgG control were given on days 17, 20, 24, and 27 after injection. α-PD-1 (1 mg/mL in saline) was utilized. Mouse IgG isotype control was purchased from Leinco Technologies and diluted in PBS.

## O=C(/C=C/N1C[C@H]2C[C@@H]1CN2c1ccccn1)c1ccccc1O [PFI-3]
[1]; 72 hr daily pre-treatment followed by 24 hr co-treatment
  effect on GFP activation by HH1 or iCDK9: inhibited GFP activation

## Nc1ncn([C@H]2C[C@H](O)[C@@H](CO)O2)c(=O)n1 [DAC, decitabine]
[2]
  low expressed genes (RPKM<0.31) down: 7
  low expressed genes (RPKM<0.31) up: 1238

## Nc1nc(N[C@H]2CC3CCC2C3)sc1C(=O)c1ccc([N+](=O)[O-])cc1 (stereo partly shown) [MC180340]
[3]
  relative activity to Depsipeptide @ 500 nM %: 3.54%
  Emax at 1 µM: 2.83%
  Emax at 5 µM: 13%
  Emax at 10 µM: 11.6%
  Emax at 25 µM: 3.41%

## Nc1nc(N[C@H]2CC3CCC2C3)sc1C(=O)c1cc2c(cc1[N+](=O)[O-])OCCO2 (stereo partly shown) [MC180312]
[3]
  relative activity to Depsipeptide @ 50 μM %: 6.38%
  Emax at 1 µM: 9.73%
  Emax at 5 µM: 35.6%
  Emax at 10 µM: 42.3%
  Emax at 25 µM: 9%

## Nc1nc(N[C@H]2CC3CCC2C3)sc1C(=O)c1cccc2nonc12 (stereo partly drawn) [MC180349, (4-amino-2-(((2S)-bicyclo[2.2.1]heptan-2-yl)amino)thiazol-5-yl)(benzo[c][1,2,5]oxadiazol-4-yl)methanone]
[3]
  relative activity to Depsipeptide @ 500 nM %: 10.98%
  Emax at 1 µM: 27.5%
  Emax at 5 µM: 91.2%
  Emax at 10 µM: 74.5%
  Emax at 25 µM: 36.6%

## CN1CC[C@H](c2c(O)cc(O)c3c(=O)cc(-c4ccccc4Cl)oc23)[C@H](O)C1 [flavopiridol]
[4]
  expression of SYNE1 and MGMT: gene reactivation

## COc1cc(C(=O)c2sc(N[C@H]3CC4CCC3C4)nc2N)cc(OC)c1OC (stereo partly drawn) [MC180251, (4-amino-2-(((2S)-bicyclo[2.2.1]heptan-2-yl)amino)thiazol-5-yl)(3,4,5-trimethoxyphenyl)methanone]
[3]
  relative activity to Depsipeptide @ 50 μM %: 0.00%
  Emax at 1 µM: 0%
  Emax at 5 µM: 0%
  Emax at 10 µM: 0%
  Emax at 25 µM: 0%

## N#Cc1ccccc1C(=O)c1sc(N[C@H]2CC3CCC2C3)nc1N (stereo partly drawn) [MC180342, 2-(4-amino-2-(((2S)-bicyclo[2.2.1]heptan-2-yl)amino)thiazole-5-carbonyl)benzonitrile]
[3]
  relative activity to Depsipeptide @ 500 nM %: 10.42%
  Emax at 1 µM: 22.7%
  Emax at 5 µM: 107%
  Emax at 25 µM: 78.8%

## NC1CCC(Nc2cc(-c3cccc(NCc4cccc(F)c4)n3)c(Cl)cn2)CC1 (stereo not shown) [iCDK9]
[4]
  expression of SYNE1 and MGMT: gene reactivation

## [Cl-].[Li+] [LiCl]
[1]
  GFP reactivation activity: no GFP reactivation activity

## Nc1nc(N[C@H]2C[C@@H]3CC[C@H]2C3)sc1C(=O)c1cc2c(cc1[N+](=O)[O-])OCO2 [MC180300]
[3]
  relative activity to Depsipeptide @ 500 nM %: 0.68%
  Emax at 1 µM: 3.87%
  Emax at 5 µM: 35.6%
  Emax at 10 µM: 51.6%
  Emax at 25 µM: 46.9%

## Nc1nc(N[C@H]2CC3CCC2C3)sc1C(=O)c1cccc([N+](=O)[O-])c1 (stereo partly shown) [MC180339]
[3]
  relative activity to Depsipeptide @ 500 nM %: 3.29%
  Emax at 1 µM: 3.05%
  Emax at 5 µM: 16.9%
  Emax at 10 µM: 29.2%
  Emax at 25 µM: 8.71%

## Cc1c[nH]c(-c2cnc(NCCNc3ccc(C#N)cn3)nc2-c2ccc(Cl)cc2Cl)n1 [CHR99021]
[1]
  GFP reactivation activity: no GFP reactivation activity

## Nc1nc(N[C@H]2CC3CCC2C3)sc1C(=O)c1ccc2nonc2c1 (stereo partly shown) [MC180345]
[3]
  relative activity to Depsipeptide @ 500 nM %: 1.87%
  Emax at 1 µM: 3.58%
  Emax at 5 µM: 3.61%
  Emax at 10 µM: 3.99%
  Emax at 25 µM: 12.6%

## CC(C)(C)c1cnc(CSc2cnc(NC(=O)C3CCNCC3)s2)o1 [SNS-032]
[5]; 10 mg/kg
  survival: extend the survival of the mice significantly
  tumor burden: reduce tumor burden
[5]; in vivo treatment, ascites fluid, flow cytometry
  immune cells (CD45+) and T cells (CD3+) in the tumor microenvironment: increased populations

— US10941126B2, “Bridged bicycloalkyl-substituted aminothiazoles and their methods of use” (Temple University—Of The Commonwealth System of Higher …, priority 2017, dated 2021)
